Measured values taken from BigSolDB 2.1.

CC(=O)Nc1ccccc1[N+](=O)[O-]
solubility (mole fraction)
Conditions | 278.15 K | 283.15 K | 288.15 K | 293.15 K | 298.15 K | 303.15 K | 308.15 K | 313.15 K | 318.15 K | 323.15 K
in 1,4-dioxane | – | – | 0.13 | 0.147 | 0.165 | 0.186 | 0.211 | 0.244 | 0.284 | 0.343
in DMF | 0.167 | 0.178 | 0.192 | 0.213 | 0.238 | 0.266 | 0.295 | 0.327 | 0.373 | 0.426
in NMP | 0.195 | 0.215 | 0.239 | 0.268 | 0.299 | 0.33 | 0.367 | 0.404 | 0.445 | 0.491
in acetonitrile | 0.0156 | 0.0176 | 0.021 | 0.0248 | 0.0302 | 0.0387 | 0.0511 | 0.0675 | 0.0932 | 0.124
in cyclohexane | – | 0.00106 | 0.00133 | 0.00167 | 0.00216 | 0.00275 | 0.00357 | 0.00474 | 0.00634 | 0.0084
in ethanol | 0.0143 | 0.0163 | 0.0188 | 0.0226 | 0.0276 | 0.0323 | 0.0382 | 0.0447 | 0.0516 | 0.0615
in ethyl acetate | 0.0478 | 0.0545 | 0.0662 | 0.079 | 0.094 | 0.112 | 0.135 | 0.163 | 0.21 | 0.263
in ethylene glycol | 0.00464 | 0.00517 | 0.00599 | 0.00714 | 0.00855 | 0.0103 | 0.0126 | 0.0155 | 0.0187 | 0.0224
in isobutanol | 0.00896 | 0.00984 | 0.0115 | 0.0134 | 0.0162 | 0.0202 | 0.0246 | 0.0302 | 0.0374 | 0.0483
in isopropanol | 0.00743 | 0.00851 | 0.00991 | 0.0121 | 0.0151 | 0.0184 | 0.0227 | 0.0279 | 0.036 | 0.0468
in methanol | 0.0181 | 0.021 | 0.0248 | 0.0289 | 0.0331 | 0.0394 | 0.0463 | 0.0558 | 0.0703 | 0.0926
in n-butanol | 0.00975 | 0.011 | 0.0127 | 0.016 | 0.0196 | 0.0232 | 0.028 | 0.0341 | 0.0422 | 0.0529
in n-heptanol | 0.00627 | 0.00721 | 0.00829 | 0.0105 | 0.0129 | 0.0163 | 0.0209 | 0.0261 | 0.0337 | 0.042
in n-propanol | 0.0129 | 0.0144 | 0.0167 | 0.0204 | 0.0245 | 0.0285 | 0.0331 | 0.0393 | 0.0468 | 0.0578
in water | 9.9e-05 | 0.000128 | 0.00016 | 0.000201 | 0.000249 | 0.00032 | 0.000412 | 0.000521 | 0.000662 | 0.000824
